Key:
[1] = molecular target: T1, dopamine D4 receptor (Homo sapiens, UniProt P21917); experiment: Binding affinity to cloned human dopamine receptors (radioligand displacement), D4; settings: for Affinity to Dopamine Receptors (% Inhibition) D4: 1 µM test compound
T1 sequence (P21917 1-419): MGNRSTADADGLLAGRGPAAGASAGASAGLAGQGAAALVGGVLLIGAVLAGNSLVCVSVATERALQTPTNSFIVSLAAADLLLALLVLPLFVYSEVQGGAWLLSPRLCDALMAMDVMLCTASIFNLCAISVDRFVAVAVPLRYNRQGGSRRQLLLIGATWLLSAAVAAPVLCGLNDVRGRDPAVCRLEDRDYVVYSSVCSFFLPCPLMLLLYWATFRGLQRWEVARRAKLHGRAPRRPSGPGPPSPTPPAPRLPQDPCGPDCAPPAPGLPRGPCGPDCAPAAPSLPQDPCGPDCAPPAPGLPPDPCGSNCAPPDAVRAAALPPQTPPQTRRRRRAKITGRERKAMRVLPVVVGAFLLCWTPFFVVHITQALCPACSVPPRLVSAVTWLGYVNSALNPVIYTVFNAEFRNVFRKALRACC
Procedure: (§1) Experimental Example: Test for the Binding Affinity to Dopamine Receptor
(§2) Binding affinities of the compounds for dopamine receptors were determined indirectly by their ability to displace radiolabeled ligand from cloned human dopamine receptors. Compounds were incubated in receptor suspension to compete with the radiolabeled ligand. The receptor-bound radiolabeled ligand was separated by filtering through Wallac glass fiber filtermat (GF/C) using Inotech cell harvester of 96-well format. The radioactivity bound to filter was counted by Micro-P counter (Wallac).
(§3) The aliquots of cloned human dopamine receptors stored at −70° C. were suspended in assay buffer and the content of receptor in each aliquot was determined by Bio-Rad DC protein assay kit to give an optimal protein (receptor) concentration obtained by preliminary receptor binding assay. Receptor suspension adjusted to optimal concentration was aliquoted in proper volume for assay and stored at −70° C. Binding assays of every compound were performed in duplicate and each different buffer solution was used for optimal assay with each subtype of dopamine receptors. Receptor binding assays were carried out in 96-well plates. Receptor suspension of 100 was incubated at 27° C. for 30-60 min in a final volume of 0.25 ml reaction mixture containing 50 of hot-ligand and 10 of test compound.
(§4) After incubation, the reaction mixture was washed with ice-cold 50 mM Tris-acetate buffer by rapid filtration using a Inotech cell harvester (Inotech, Switzerland) through Whatman GF/C glass fiber filter presoaked in the assay buffer. The filter was covered with MeltiLex, sealed in a sample bag followed by drying in the microwave, and counted by MicroBeta Plus (Wallac, Finland) at a counting efficiency of 30-40%.

[2] = molecular target: dopamine D3 receptor (Homo sapiens, UniProt P35462); experiment: Binding affinity to cloned human dopamine receptors (radioligand displacement), D3; settings: for Affinity to Dopamine Receptors (% Inhibition) D3: 1 µM test compound
Procedure: as §1, §2, §3, §4

[3] = molecular target: dopamine D1 receptor (Homo sapiens, UniProt P21728); experiment: Binding affinity to cloned human dopamine receptors (radioligand displacement), D1; settings: for Affinity to Dopamine Receptors (% Inhibition) D1: 1 µM test compound
Procedure: as §1, §2, §3, §4

[4] = molecular target: dopamine D2 receptor (Homo sapiens, UniProt P14416); experiment: Binding affinity to cloned human dopamine receptors (radioligand displacement), D2; settings: for Affinity to Dopamine Receptors (% Inhibition) D2: 1 µM test compound
Procedure: as §1, §2, §3, §4

dopamine D1 receptor, sequence (P21728 whole entry): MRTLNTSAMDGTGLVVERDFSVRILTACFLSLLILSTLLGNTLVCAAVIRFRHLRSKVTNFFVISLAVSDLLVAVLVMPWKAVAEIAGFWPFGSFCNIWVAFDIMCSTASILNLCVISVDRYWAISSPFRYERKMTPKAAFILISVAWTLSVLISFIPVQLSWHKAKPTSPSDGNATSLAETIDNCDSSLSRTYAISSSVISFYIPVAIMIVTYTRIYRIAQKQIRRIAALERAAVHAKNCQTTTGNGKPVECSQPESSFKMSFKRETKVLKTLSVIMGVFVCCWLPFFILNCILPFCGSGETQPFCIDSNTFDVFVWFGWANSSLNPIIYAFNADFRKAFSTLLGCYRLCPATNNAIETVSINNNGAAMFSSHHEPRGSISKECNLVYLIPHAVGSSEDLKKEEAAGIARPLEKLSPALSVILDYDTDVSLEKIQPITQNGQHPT
dopamine D2 receptor, sequence (P14416 whole entry): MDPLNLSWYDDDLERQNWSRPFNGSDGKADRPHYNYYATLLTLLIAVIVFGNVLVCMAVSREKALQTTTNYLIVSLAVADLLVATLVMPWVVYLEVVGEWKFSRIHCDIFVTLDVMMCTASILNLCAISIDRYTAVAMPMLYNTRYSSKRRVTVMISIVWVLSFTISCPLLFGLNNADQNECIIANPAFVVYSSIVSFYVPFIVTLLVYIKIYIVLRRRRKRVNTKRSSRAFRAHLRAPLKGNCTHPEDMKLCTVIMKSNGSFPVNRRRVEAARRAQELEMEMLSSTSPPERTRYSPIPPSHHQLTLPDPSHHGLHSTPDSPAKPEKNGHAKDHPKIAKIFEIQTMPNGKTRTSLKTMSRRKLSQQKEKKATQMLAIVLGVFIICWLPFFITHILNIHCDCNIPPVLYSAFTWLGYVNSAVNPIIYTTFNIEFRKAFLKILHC
dopamine D3 receptor, sequence (P35462 whole entry): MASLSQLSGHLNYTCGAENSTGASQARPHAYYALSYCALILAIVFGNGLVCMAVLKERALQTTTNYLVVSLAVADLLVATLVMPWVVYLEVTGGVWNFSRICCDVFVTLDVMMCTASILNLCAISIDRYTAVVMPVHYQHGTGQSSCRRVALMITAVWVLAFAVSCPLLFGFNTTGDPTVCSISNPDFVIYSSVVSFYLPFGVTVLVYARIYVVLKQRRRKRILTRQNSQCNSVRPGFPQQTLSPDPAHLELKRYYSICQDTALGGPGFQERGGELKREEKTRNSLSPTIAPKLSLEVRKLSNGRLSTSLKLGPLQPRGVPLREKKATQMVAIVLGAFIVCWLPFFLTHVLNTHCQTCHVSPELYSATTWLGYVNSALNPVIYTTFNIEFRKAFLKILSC

Row | SMILES | IC50 [1] [nM] | Affinity to Dopamine Receptors (% Inhibition) D4 [1] [%] | IC50 [2] [nM] | Affinity to Dopamine Receptors (% Inhibition) D3 [2] [%] | IC50 [3] [nM] | Affinity to Dopamine Receptors (% Inhibition) D1 [3] [%] | IC50 [4] [nM] | Affinity to Dopamine Receptors (% Inhibition) D2 [4] [%]
1 | c1ccc(N2CCN(CCCCc3cc(-c4cccs4)no3)CC2)cc1 [Compound No. 33] | 180 | 62.4 | 35 | 104.4 | 310 | 52.9 | 18800 | 6.7
2 | COc1ccc(-c2cc(CCCCN3CCN(c4ccccc4OC)CC3)on2)cc1OC [Compound No. 39] | 395 | 80.1 | 12 | 105.1 | 2880 | 23.9 | 1900 | 23
3 | C(=C\c1cc(CCCCN2CCN(c3ccccc3)CC2)on1)/c1ccccc1 [Compound No. 36] | – | 69 | – | 107.9 | – | 75.2 | – | 22.2
4 | CCOc1ccccc1N1CCN(CCCc2cc(-c3ccc(F)cc3)no2)CC1 [Compound No. 20] | – | 86.2 | – | 89.4 | – | – | – | 47.9
5 | CCOc1ccccc1N1CCN(CCCCc2cc(-c3ccccc3)no2)CC1 [Compound No. 54] | 52 | 77.6 | 21 | 101.8 | – | – | 1550 | 29.9
6 | Fc1ccccc1N1CCN(CCCCc2cc(/C=C/c3ccccc3)no2)CC1 [Compound No. 46] | 89 | 45.1 | – | – | – | 75.8 | 2660 | 15.6
7 | COc1ccccc1N1CCN(CCCCc2cc(-c3ccc(F)cc3)no2)CC1 [Compound No. 37] | – | 91.3 | – | 112.5 | – | 52.2 | – | 57.3
8 | COc1ccc(-c2cc(CCCN3CCN(c4ccccc4)CC3)on2)c(OC)c1 [Compound No. 32] | 117 | 74.9 | 38 | 100.1 | 110 | 70 | 9980 | 10.6
9 | C(=C\c1cc(CCCCN2CCN(C(c3ccccc3)c3ccccc3)CC2)on1)/c1ccccc1 [Compound No. 29] | – | 31.6 | – | 102.4 | – | 32.6 | – | 0.0
10 | CCOc1ccccc1N1CCN(CCCCc2cc(-c3cccs3)no2)CC1 [Compound No. 53] | 19 | 93.4 | – | – | – | – | 880 | 54.1

Source: patent publication US6723724B2, “Isoxazolylalkylpiperazine derivatives having selective biological activity at dopamine D3 or D4 receptor, and preparation thereof” (priority 2000, dated 2004)
